# From US20050009023A1, “Glucocorticoid-induced receptor and methods of use” (priority 2001, published 2005)
# What was measured:
# [1] = system: GIR mRNA in rat prefrontal cortex; test: GIR mRNA expression following chronic amphetamine administration (competitive RT-PCR); assay type: in vivo; settings: for GIR mRNA levels in prefrontal cortex: mean±SE, n=6
# Experimental: (§1) GIR mRNA Expression Following Chronic Amphetamine Administration. Male Sprague-Dawley rats (200-250g, Harlan Sprague-Dawley Laboratories, Indianapolis, Ind.) received subcutaneous injection of either d-amphetamine (AMPH) (2.5 mg/kg) or saline (1 ml/kg) in their home cages once daily for 5 consecutive days (days 1-5). On day 9, four days following completion of this pre-treatment regimen, all animals were transferred to Residential Activity Chambers (RACs) (Segal and Kuczenski, 1987; Richtand et al., 2000), and received saline injection (1 ml/kg) on days 10 and 11 to measure conditioned response to injection. On day 12, seven days following completion of the pre-treatment regimen, all rats received AMPH (2.5 mg/kg) and locomotor activity was determined by photobeam monitoring for 150 minutes following injection. Locomotor activity is expressed as crossovers, defined as the number of times the animal crosses into any of four quadrants subdividing the enclosure. All animals were sacrificed by decapitation 4 hours following injection and total RNA was extracted from prefrontal cortex for determination of GIR mRNA expression. In a separate experiment, rats were injected with either AMPH (2.5 mg/kg) or saline (1 ml/kg) for 5 consecutive days, and sacrificed by decapitation 7 days after the last injection without the final AMPH challenge. Thus, four groups were generated: SAL-AMPH (Saline×5 days and AMPH at challenge), AMPH-AMPH (AMPH×5 days and AMPH at challenge), SAL (Saline×5 days), and AMPH (AMPH×5 days).
# Construction of Competitor DNA and Quantitative RT-PCR. To construct the mutant template for competitive PCR, a 20 bp GIR sequence (5′-[…]-3′, 1213-1232 bp in FIG. 1; SEQ ID NO: 18) was incorporated into the upstream primer so that a rat GIR cDNA fragment was amplified by RT-PCR using the chimeric upstream primer (5′-[…]-3′, 1213-1232 bp in FIG. 1; SEQ ID NO:19) and the downstream primer (5′-CGGCCACAGTGGGTTCCAC-3′, 1575-1557 in FIG. 1; SEQ ID NO:13). The 262 bp PCR product was subcloned into pGEM-T vector (Promega, Madison, Wis.). The plasmid DNA was purified (Qiagen, Valencia, Calif.) and insert was verified by DNA sequencing. A fragment containing the mutant rat GIR template (262 bp) was released by EcoRI digestion and purified by agarose gel electrophoresis. DNA concentration was determined spectrophotometrically. Serial dilutions of mutant template were prepared.
# The amount of GIR mRNA was quantitated by competitive RT-PCR as described previously (Miao et al., 2000). Briefly, reverse transcription was performed with 2 μg of total RNA using a non-specific random hexamer primer (Promega, Madsion, Wis.). One μl of first strand cDNA was mixed with known amounts of linearized competitor DNA ranging from […], and subjected to co-amplification with GIR-specific primers (5′-[…]-3′, 1213-1232 bp, SEQ ID NO:IS; and 5′-CGGCCACAGTGGGTTCCAC-3′, 1575-1557 bp in FIG. 1, SEQ ID NO:14). PCR was run for 30 cycles of 94° C./1 min, 60° C./2 min 72° C./3 min, and the PCR products were electrophoresed on 1.2% agarose gel. The intensities of bands, corresponding to the products from the GIR mRNA and the competitor with 101-bp size difference, was analyzed densitometrically by BioImage system combined with NIH software (Bio-Rad, Hercules, Calif.). The intensity ratios between the two bands were logarithmically plotted against the known initial input of competitor template, and the amount of GIR mRNA in the total RNA samples was calculated by linear regression. […]
# Male Sprague-Dawley rats = test: Locomotor activity (crossovers) after amphetamine challenge, behavioral sensitization; assay type: in vivo, rat; settings: AMPH 2.5 mg/kg challenge, mean±SE
# Experimental: as §1
structure (smiles),measurement,setting,value
"C[C@H](N)Cc1ccccc1 [amphetamine, D-Amphetamine]","GIR mRNA levels in prefrontal cortex, increase of AMPH-AMPH rats compared to SAL-AMPH rats","[1]; AMPH 2.5 mg/kg s.c. x5 days, AMPH challenge 7 days after, sacrificed 4 hours after injection, n=6, P<0.05",1.38 fold
same,"GIR mRNA levels in prefrontal cortex, increase of AMPH rats compared to SAL rats","[1]; AMPH 2.5 mg/kg x5 days, no challenge injection, 7 days after last injection, n=6, P<0.05",1.70 fold
same,GIR mRNA levels in prefrontal cortex,"[1]; AMPH rats (AMPH x5 days, no challenge), 7 days after amphetamine ceased",3.65±0.22 fg/100 ng total RNA
same,GIR mRNA levels in prefrontal cortex,"[1]; AMPH-AMPH rats (AMPH x5 days and AMPH at challenge), 2.5 mg/kg s.c.",2.97(±0.26 fg/100 ng total RNA
same,GIR mRNA levels in prefrontal cortex,[1]; SAL-AMPH rats (saline x5 days and AMPH 2.5 mg/kg at challenge),2.27(±0.22 fg/100 ng total RNA
same,locomotion at 12-60 min post-injection (focused stereotypy phase),"Male Sprague-Dawley rats; AMPH-AMPH rats, n=6, P<0.0001",50.20±12.63 crossovers/12-60 min
same,locomotion at 60-150 min (post-stereotypy locomotion phase),"Male Sprague-Dawley rats; AMPH-AMPH rats, n=6, P<0.05",496.67±70.28 crossovers/60-150min
same,locomotion at 12-60 min post-injection (focused stereotypy phase),"Male Sprague-Dawley rats; SAL-AMPH rats, n=6",286.00±27.57 crossovers/12-60 min
same,locomotion at 60-150 min (post-stereotypy locomotion phase),"Male Sprague-Dawley rats; SAL-AMPH rats, n=6",312.25±29.17 crossovers/60-150min
